# Reference: patent US20160166520A1, “METHODS AND COMPOSITIONS RELATING TO THE TREATMENT OF VISCERAL FAT AND ASTHMA” (YALE UNIVERSITY, priority 2014, published 2016)
# What was measured:
# Sirt1 [1] = biological target: T1, Sirt1 (Mus musculus, UniProt Q923E4); experiment: Visceral (epididymal) fat accumulation in mice treated with Sirt1 inhibitor; assay type: in vivo; details: 0.4 mg/kg body weight per day i.p. twice per week for 5 weeks, vs DMSO vehicle
# T1 construct: from tissue; host or cells: whole living mice (WT and Chi3l1-/-); read-outs in lung/BAL and epididymal fat pads
# T1 sequence (Q923E4 1-737): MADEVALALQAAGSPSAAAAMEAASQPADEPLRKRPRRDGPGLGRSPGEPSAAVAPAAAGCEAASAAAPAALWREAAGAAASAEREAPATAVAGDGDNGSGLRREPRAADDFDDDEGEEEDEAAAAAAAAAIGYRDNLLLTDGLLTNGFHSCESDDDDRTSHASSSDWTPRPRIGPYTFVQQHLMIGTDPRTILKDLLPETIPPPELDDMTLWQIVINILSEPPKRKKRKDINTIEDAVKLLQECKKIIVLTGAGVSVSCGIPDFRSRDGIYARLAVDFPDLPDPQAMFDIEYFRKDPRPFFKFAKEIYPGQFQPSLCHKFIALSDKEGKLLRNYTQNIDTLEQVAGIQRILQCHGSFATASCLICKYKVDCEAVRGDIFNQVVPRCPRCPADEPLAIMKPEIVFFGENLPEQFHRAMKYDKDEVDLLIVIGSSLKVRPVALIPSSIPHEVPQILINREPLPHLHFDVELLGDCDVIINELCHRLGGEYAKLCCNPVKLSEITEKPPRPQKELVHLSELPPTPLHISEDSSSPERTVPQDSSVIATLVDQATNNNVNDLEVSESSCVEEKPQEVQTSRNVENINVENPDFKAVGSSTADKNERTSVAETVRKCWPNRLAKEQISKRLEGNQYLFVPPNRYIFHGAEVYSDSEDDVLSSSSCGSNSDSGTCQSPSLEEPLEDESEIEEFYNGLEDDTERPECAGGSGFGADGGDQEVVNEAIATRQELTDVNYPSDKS
# Experimental: WT and Chi3l1^−/− mice were treated with Sirtinol or its vehicle (DMSO) and fat accumulation was assessed. Each animal received drug (0.4 mg/kg body weight per day) or vehicle twice per week for 5 weeks. FIG. 7A depicts a representative photograph illustrating abdominal fat accumulation, FIG. 7B depicts the weight of epididymal fat pads from WT and chi3l1^−/− mice. The noted values represent the mean±SEM of a minimum of 5 animals. (*P≦0.05, **p≦0.01). Sirtinol, a Sirt1 inhibitor (Enzo Life Sciences) or vehicle control (0.05% dimethyl sulofoxide) were diluted with Phosphate Buffered Saline (PBS) and administered via an intraperitoneal (i.p.) route.
# Sirt1 [2] = biological target: T1, Sirt1; experiment: OVA aeroallergen-induced adaptive Th2 lung inflammation in mice treated with Sirt1 inhibitor; assay type: in vivo; details: OVA sensitized and challenged, 0.4 mg/kg body weight per day i.p. one hour before every antigen challenge, vs DMSO vehicle
# Experimental: WT and Chit3l1^−/− mice were sensitized and challenged with OVA (ova+) or PBS (ova−) and were treated with Sirtinol or its vehicle (DMSO). Each animal received drug (0.4 mg/kg body weight per day) or vehicle one hour before every antigen challenge. FIGS. 6A-6B depict BAL total cell and eosinophil recovery, FIG. 6C depicts H&E photomicrographs of lungs from WT and Chi3l1^−/− mice treated with sirtinol or vehicle after OVA challenge, FIGS. 6D-6H depict the levels of mRNA encoding IL-4, IL-13, IL-17, IL-6 and TNF-α in the lungs of WT and Chi3l1^−/− mice treated with Sirtinol or DMSO. The noted values represent the mean±SEM of a minimum of 5 animals. (*p≦0.05, **p≦0.01). Mice were sensitized and challenged with ovalbumin (OVA) as previously described (20). One day after last challenge, the mice were sacrificed, bronchoalveolar lavage (BAL) was undertaken, and tissue responses were evaluated. Sirtinol, a Sirt1 inhibitor (Enzo Life Sciences) or vehicle control (0.05% dimethyl sulofoxide) were diluted with Phosphate Buffered Saline (PBS) and administered via an intraperitoneal (i.p.) route.
smiles,measurement,setting,value
CC(NC(=O)c1ccccc1/N=C/c1c(O)ccc2ccccc12)c1ccccc1 (stereo not shown) [Sirtinol],levels of visceral fat,Sirt1 [1]; Chi3l1 null mice,restored
same,levels of visceral fat,Sirt1 [1]; WT mice,did not significantly alter
same,"aeroallergen induced Th2 inflammation and Th2, IL-17 and IL-6 cytokine expression, and airway mucus",Sirt1 [2]; Chi3l1 null mice,restored
same,"aeroallergen-induced Th2 inflammation and Th2, IL-17 and IL-6 cytokine production and mucus production in the lung",Sirt1 [2]; WT mice,diminished
